Data as given in PMC4594035, “Xenopus borealis as an alternative source of oocytes for biophysical and pharmacological studies of neuronal ion channels” (Scientific Reports, 2015).
Where two headings read alike, the source gives them in different places. Bridge positions count the residues as written; N and C are the ends. Ends that are not written are not given here.

Key:
[1] = molecular target: α5β2γ2L GABAAR (Homo sapiens, UniProt P31644+P47870); assay: GABA activation of α5β2γ2L GABAAR, two-electrode voltage-clamp in Xenopus oocytes; format: cell-based; conditions: n = 9–10; for Slope (Hill coefficient): mean
Experimental: (§1) X. laevis (Xenopus Express) and X. borealis (Nasco) oocytes were surgically removed from anaesthetised (Tricaine methanesulfonate, MS-222) female frogs and treated with collagenase (1 mg/ml; Sigma type I) for defolliculation. cRNAs were synthesised using an mMessage mMachine cRNA transcription kit (Ambion Inc., Austin, TX, USA) and injected into stage V–VI oocytes at 4–200 ng per cell. Oocytes were stored at 17 °C in ND96 solution (96 mM NaCl, 1.8 mM CaCl2, 2 mM KCl, 2 mM MgCl2, 5 mM HEPES, pH 7.4) supplemented with 2.5 mM pyruvic acid, 50 μg/mL gentamicin, and either 2.5% horse serum or 0.5 mM theophylline. Membrane currents were recorded 2–10 days after injection under voltage-clamp (Axoclamp 900A or Geneclamp 500B, Molecular Devices, CA, USA) using two standard glass microelectrodes of 0.5–2 MΩ resistance when filled with 3 M KCl solution. Data acquisition and analysis were performed using pCLAMP software (Version 9.2 or 10, Molecular Devices, Sunnyvale, CA, USA). All experiments were performed at room temperature (18–21 °C) in ND96 solution. Experiments containing peptides were performed in ND96 solution containing 0.1% fatty acid free-bovine serum albumin (Sigma). Recordings were performed as previously described for ASICs[30][31], GABAAR[32][33], GlyR[34], KV[6][8][35], and NaV[36] channels.
(§2) All data were analysed using Prism 6.0 (GraphPad Software, San Diego, CA, USA). The Hill equation was fitted to normalised concentration-response curves to obtain the half-maximal response (EC50, IC50, or pH50) and Hill coefficient (nH). Voltage-dependent activation curves were fit with the Boltzmann equation to obtain the V0.5 (the voltage corresponding to half-maximal effect). Data are shown as mean and 95% confidence intervals, and n represents the number of oocytes for a given experiment (taken from at least three different frogs). […] For both t-tests, it was assumed data was sampled from Gaussian populations, and P values were calculated from two-tailed tests. […]

[2] = molecular target: α5β3γ2L GABAAR (Homo sapiens, UniProt P28472+P31644); assay: GABA activation of α5β3γ2L GABAAR, two-electrode voltage-clamp in Xenopus oocytes; format: cell-based; conditions: n = 9–10; for Slope (Hill coefficient): mean
Experimental: as §1, §2

[3] = molecular target: α1β2γ2L GABAAR (Homo sapiens, UniProt P14867+P47870); assay: GABA activation of α1β2γ2L GABAAR, two-electrode voltage-clamp in Xenopus oocytes; format: cell-based; conditions: n = 9–10; for Slope (Hill coefficient): mean
Experimental: as §1, §2

[4] = system: α1N203C GlyR; conditions: for ΔFmax (maximal fluorescence change) / ΔImax (maximal current change) / Slope, ΔF / Slope, ΔI / EC50: MTS-TAMRA labelled, mean ± s.e.m.; for Slope, ΔF / Slope, ΔI / EC50: n = 4–6; for EC50: −40 mV
From the text: (§3) This technique permits the real time monitoring of conformational changes in ion channel domains distant from the gate. It involves introducing a cysteine into the ion channel domain of interest and covalently labelling it with a sulfhydryl-reactive rhodamine derivative such as MTSR. As the quantum efficiency of the rhodamine depends on the hydrophobicity of its environment, protein conformational changes occurring in the immediate vicinity of the attached fluorophore are likely to change the hydrophobicity of its environment and thus produce a fluorescence change. […] Conformational changes at the channel gate are monitored simultaneously using two-electrode voltage-clamp. For these recordings, DNA encoding the α1 GlyR subunit was subcloned into pGEMHE, a plasmid vector optimised for oocyte expression. […] Both sites have previously been characterised extensively using voltage-clamp fluorometry. A C41A mutation was incorporated into the α1 GlyR to eliminate the sole non-crosslinked extracellular sulfhydryl group. Site directed mutagenesis was performed using the QuikChange mutagenesis kit (Stratagene).
(§4) On the day of recording, oocytes were transferred into ND96 and stored on ice. For a subset of experiments, a modified version of the previously described approach[39] for vitelline membrane disruption and removal was performed by incubating oocytes in ND96 containing 0.5 mg/ml protease (protease type VIII from Bacillus licheniformis, Sigma-Aldrich) for 1–1.5 min before labelling. Following this, a sequential wash step was performed by transferring oocytes into fresh ND96 solution five consecutive times. To label with either MTSR or MTS-TAMRA (Toronto Research Chemicals), oocytes were transferred into labelling solution containing 10 μM of either compound in ND96 for 25 s. The oocytes were then washed and stored in ND96 for up to 6 h before recording. All labelling steps were performed on ice.
(§5) We recently described the experimental set up in detail. Briefly, we employed an inverted microscope (Eclipse TE300, Nikon Instruments) equipped with a high-Q tetramethylrhodamine isothiocyanate filter set (Chroma Technology), a Plan Fluor X40 objective (Nikon Instruments) and an H7360-03 photomultiplier detection system (Hamamatsu Photonics) attached to the side port of the microscope. An excitation filter wheel including a shutter and emission filter wheel were controlled through a Lambda 10-2 unit (Sutter Instruments). A Lambda LS 175 W xenon arc lamp served as a light source and was coupled to the microscope via a liquid light guide (Sutter Instruments). The design of the custom-made recording chamber has been described. An automated perfusion system operated by a ValveBank-8 valve controller (AutoMate Scientific) was used for perfusion of the recording chamber. Electrodes were moved by automated ROE-200 micromanipulators coupled to an MPC-200 controller (Sutter Instruments). Cells were voltage-clamped at −40 mV and currents recorded using a Gene Clamp 500B amplifier (Molecular Devices). Current and fluorescence traces were acquired at 200 Hz via a Digidata 1322A interface and pCLAMP 9.2 software.
(§6) All data were analysed using Prism 6.0 (GraphPad Software, San Diego, CA, USA). The Hill equation was fitted to normalised concentration-response curves to obtain the half-maximal response (EC50, IC50, or pH50) and Hill coefficient (nH). Voltage-dependent activation curves were fit with the Boltzmann equation to obtain the V0.5 (the voltage corresponding to half-maximal effect). Data are shown as mean and 95% confidence intervals, and n represents the number of oocytes for a given experiment (taken from at least three different frogs). Most equivalence testing comparing X. laevis and X. borealis oocytes was performed using an unpaired Student’s t-test with 95% confidence intervals.

[5] = system: α1R271C GlyR; conditions: MTSR labelled, mean ± s.e.m.; for Slope, ΔF / Slope, ΔI / EC50: n = 4–6; for EC50: −40 mV
From the text: as §3, §4, §5, §6

[6] = system: NaV1.2; assay: Inhibition of NaV1.2 by ProTx-I, two-electrode voltage-clamp in Xenopus oocytes; format: cell-based; conditions: 300 nM ProTx-I; depolarisation to –15 mV from holding potential −80 mV; n = 8–9; Fig. 3f; P > 0.05
Experimental: as §1, with “Recordings were performed as previously described for ASICs[30][31], GABAAR[32][33], GlyR[34], KV[6][8][35], and NaV[36] channels.” left out
(§7) All data were analysed using Prism 6.0 (GraphPad Software, San Diego, CA, USA). […] For both t-tests, it was assumed data was sampled from Gaussian populations, and P values were calculated from two-tailed tests. […]

[7] = system: NaV1.7; assay: Inhibition of NaV1.7 by ProTx-I, two-electrode voltage-clamp in Xenopus oocytes; format: cell-based; conditions: 300 nM ProTx-I; depolarisation to –15 mV from holding potential −80 mV; n = 8–9; Fig. 3f; P > 0.05
Experimental: as §1, with “Recordings were performed as previously described for ASICs[30][31], GABAAR[32][33], GlyR[34], KV[6][8][35], and NaV[36] channels.” left out
as §7

[8] = system: NaV channel; conditions: cited from earlier work
Experimental: Two-electrode voltage-clamp electrophysiology recordings were performed to compare the properties of a panel of KV and voltage-gated sodium (NaV) channels heterologously expressed in X. laevis and X. borealis oocytes. […] Conductance-voltage relationship curves obtained for NaV1.2 (Fig. 3c), NaV1.5 (Fig. 3d), and NaV1.7 (Fig. 3e) overlap ...

[9] = system: NaV1.5; assay: Inhibition of NaV1.5 by ProTx-I, two-electrode voltage-clamp in Xenopus oocytes; format: cell-based; conditions: 300 nM ProTx-I; depolarisation to –15 mV from holding potential −80 mV; n = 8–9; Fig. 3f; P > 0.05
Experimental: as §1, with “Recordings were performed as previously described for ASICs[30][31], GABAAR[32][33], GlyR[34], KV[6][8][35], and NaV[36] channels.” left out
as §7

[10] = molecular target: T1, rat ASIC3 (Rattus norvegicus, UniProt O35240); assay: Inhibition of rat ASIC3 by APETx2, two-electrode voltage-clamp in Xenopus oocytes; format: cell-based; conditions: ND96 with 0.1% fatty acid free-bovine serum albumin, 18–21 °C, mean, n = 9, Supplementary Table S3, read-out: IC50 (half-maximal response)
T1 construct: expressed in transfected cells; host or cells: Xenopus laevis and Xenopus borealis oocytes (cRNA injection)
T1 sequence (O35240 1-533): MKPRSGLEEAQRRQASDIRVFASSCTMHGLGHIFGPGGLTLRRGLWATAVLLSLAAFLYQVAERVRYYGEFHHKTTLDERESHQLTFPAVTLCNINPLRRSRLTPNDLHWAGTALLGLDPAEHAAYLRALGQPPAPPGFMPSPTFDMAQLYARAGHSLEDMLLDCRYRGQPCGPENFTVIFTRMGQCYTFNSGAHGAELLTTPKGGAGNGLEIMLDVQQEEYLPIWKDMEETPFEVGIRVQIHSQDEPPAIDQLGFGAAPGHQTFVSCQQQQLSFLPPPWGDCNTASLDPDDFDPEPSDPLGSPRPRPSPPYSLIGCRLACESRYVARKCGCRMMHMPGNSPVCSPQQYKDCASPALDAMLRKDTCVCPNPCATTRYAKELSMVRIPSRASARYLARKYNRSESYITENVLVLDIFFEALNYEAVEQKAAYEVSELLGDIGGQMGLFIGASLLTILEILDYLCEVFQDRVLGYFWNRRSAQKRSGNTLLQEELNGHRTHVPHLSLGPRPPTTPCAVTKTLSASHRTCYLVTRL
Experimental: as §1, with “Recordings were performed as previously described for ASICs[30][31], GABAAR[32][33], GlyR[34], KV[6][8][35], and NaV[36] channels.” left out
as §7

[11] = X. laevis compared with X. borealis oocytes
[12] = read-out: EC50, ΔF (glycine-induced fluorescence change), X. laevis oocytes
[13] = read-out: EC50, ΔI (glycine-induced current), X. borealis oocytes
[14] = read-out: EC50, ΔI (glycine-induced current), X. laevis oocytes

Chain of α1β2γ2L GABAAR (P14867 28-456): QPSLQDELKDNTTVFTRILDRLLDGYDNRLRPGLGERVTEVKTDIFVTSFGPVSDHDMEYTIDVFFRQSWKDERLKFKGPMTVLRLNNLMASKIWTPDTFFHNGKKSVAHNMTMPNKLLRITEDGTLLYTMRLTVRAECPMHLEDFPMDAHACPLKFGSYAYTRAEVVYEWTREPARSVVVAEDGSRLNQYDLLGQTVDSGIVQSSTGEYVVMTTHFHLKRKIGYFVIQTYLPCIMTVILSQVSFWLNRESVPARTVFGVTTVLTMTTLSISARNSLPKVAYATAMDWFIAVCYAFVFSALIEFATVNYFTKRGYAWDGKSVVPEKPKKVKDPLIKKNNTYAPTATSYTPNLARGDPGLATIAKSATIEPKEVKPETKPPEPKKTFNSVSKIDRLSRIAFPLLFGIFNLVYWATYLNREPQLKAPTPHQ
Chain of α1β2γ2L GABAAR (P47870 26-512): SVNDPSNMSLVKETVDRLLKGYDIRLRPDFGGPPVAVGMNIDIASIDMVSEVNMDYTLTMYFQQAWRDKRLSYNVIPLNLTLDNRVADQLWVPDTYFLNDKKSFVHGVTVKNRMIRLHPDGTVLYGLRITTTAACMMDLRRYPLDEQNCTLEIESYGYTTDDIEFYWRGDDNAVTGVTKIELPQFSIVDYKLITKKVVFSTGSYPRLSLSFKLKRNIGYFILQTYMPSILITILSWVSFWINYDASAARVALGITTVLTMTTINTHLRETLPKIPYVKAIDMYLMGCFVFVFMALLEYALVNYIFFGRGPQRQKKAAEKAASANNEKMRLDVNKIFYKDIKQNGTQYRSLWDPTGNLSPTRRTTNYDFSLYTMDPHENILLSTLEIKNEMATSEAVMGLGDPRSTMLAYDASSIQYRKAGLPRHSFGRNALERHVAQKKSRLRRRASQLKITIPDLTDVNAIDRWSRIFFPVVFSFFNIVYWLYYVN
Chain of α1β2γ2L GABAAR (P18507 40-475 partner): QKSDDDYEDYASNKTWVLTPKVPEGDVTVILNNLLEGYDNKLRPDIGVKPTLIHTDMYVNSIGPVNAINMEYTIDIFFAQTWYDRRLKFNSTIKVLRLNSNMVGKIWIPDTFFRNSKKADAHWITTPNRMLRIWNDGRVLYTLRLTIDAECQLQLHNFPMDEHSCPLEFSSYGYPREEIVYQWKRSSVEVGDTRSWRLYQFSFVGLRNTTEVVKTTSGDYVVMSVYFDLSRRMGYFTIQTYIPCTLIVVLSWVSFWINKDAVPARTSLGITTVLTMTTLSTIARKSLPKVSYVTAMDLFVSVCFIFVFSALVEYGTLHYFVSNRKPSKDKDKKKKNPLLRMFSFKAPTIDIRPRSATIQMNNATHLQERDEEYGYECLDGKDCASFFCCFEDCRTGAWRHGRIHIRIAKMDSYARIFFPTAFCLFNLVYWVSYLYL
Chain of α5β2γ2L GABAAR (P31644 32-462): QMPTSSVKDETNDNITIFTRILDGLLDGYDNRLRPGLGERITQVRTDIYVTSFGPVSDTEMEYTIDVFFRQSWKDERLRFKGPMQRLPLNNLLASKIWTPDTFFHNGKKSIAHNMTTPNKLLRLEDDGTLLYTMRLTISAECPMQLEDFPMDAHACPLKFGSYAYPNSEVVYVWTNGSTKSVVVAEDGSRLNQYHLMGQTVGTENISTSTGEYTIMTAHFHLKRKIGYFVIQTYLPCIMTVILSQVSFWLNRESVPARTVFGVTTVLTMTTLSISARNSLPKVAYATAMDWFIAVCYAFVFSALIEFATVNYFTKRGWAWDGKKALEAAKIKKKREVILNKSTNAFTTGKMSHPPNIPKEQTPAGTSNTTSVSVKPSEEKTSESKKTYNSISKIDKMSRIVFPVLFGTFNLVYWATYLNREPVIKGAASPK
Chain of α5β2γ2L GABAAR (P47870 26-512): as the sequence (P47870 26-512) above
Chain of α5β2γ2L GABAAR (P18507 40-475 partner): as the sequence (P18507 40-475 partner) above
Chain of α5β3γ2L GABAAR (P31644 32-462): as the sequence (P31644 32-462) above
Chain of α5β3γ2L GABAAR (P28472 26-473): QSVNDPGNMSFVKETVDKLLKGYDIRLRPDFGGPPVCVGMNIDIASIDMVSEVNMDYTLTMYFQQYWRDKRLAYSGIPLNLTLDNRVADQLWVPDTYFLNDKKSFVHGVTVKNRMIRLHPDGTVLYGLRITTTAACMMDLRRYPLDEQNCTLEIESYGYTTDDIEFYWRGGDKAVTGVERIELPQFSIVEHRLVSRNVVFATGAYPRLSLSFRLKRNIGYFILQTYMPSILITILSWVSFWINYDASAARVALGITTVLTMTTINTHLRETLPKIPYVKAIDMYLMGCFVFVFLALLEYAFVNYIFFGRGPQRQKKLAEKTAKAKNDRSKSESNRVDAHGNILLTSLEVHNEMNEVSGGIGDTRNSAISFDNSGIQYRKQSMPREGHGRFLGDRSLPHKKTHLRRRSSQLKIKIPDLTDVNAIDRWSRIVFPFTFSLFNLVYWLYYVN
Chain of α5β3γ2L GABAAR (P18507 40-475 partner): as the sequence (P18507 40-475 partner) above

NCCCC(=O)O [GABA, γ-aminobutyric acid]
Slope (Hill coefficient) ([1]; X. borealis oocytes): 0.74 | Concentration-effect curves for GABA activation, X. laevis vs X. borealis [1, 11]: no difference in the concentration-effect curves | Slope (Hill coefficient) ([1]; X. laevis oocytes): 0.49 | Slope (Hill coefficient) ([2]; X. borealis oocytes): 0.93 | Concentration-effect curves for GABA activation, X. laevis vs X. borealis [2, 11]: no difference in the concentration-effect curves | Slope (Hill coefficient) ([2]; X. laevis oocytes): 0.75 | Slope (Hill coefficient) ([3]; X. borealis oocytes): 0.60 | Concentration-effect curves for GABA activation, X. laevis vs X. borealis [3, 11]: no difference in the concentration-effect curves | Slope (Hill coefficient) ([3]; X. laevis oocytes): 0.56

NCC(=O)O [glycine]
ΔF after 1 min protease treatment vs untreated oocytes ([4]; 10 μM glycine, protease (type VIII, 0.5 mg/ml) 1 min before labelling, n = 7, Fig. 5b): A significant increase in ΔF was obtained after 1 min treatment with protease for X. borealis, but not X. laevis, oocytes | ΔFmax (maximal fluorescence change) ([4]; X. borealis oocytes): 27.8 ± 4.4% | ΔImax (maximal current change) ([4]; X. borealis oocytes): 8.0 ± 0.8 µA | Slope, ΔF ([4]; X. borealis oocytes): 1.8 ± 0.1 | Slope, ΔI ([4]; X. borealis oocytes): 1.5 ± 0.1 | ΔFmax (maximal fluorescence change) ([4]; X. laevis oocytes): 25.9 ± 4.2% | ΔImax (maximal current change) ([4]; X. laevis oocytes): 8.4 ± 0.2 µA | Slope, ΔF ([4]; X. laevis oocytes): 1.4 ± 0.2 | Slope, ΔI ([4]; X. laevis oocytes): 1.9 ± 0.2 | EC50 [4, 12]: 548 ± 25 µM | EC50 [4, 13]: 136 ± 8.7 µM | EC50 [4, 14]: 145 ± 10 µM | ΔFmax (maximal fluorescence change) ([5]; X. borealis oocytes): 9.0 ± 2.2% | ΔImax (maximal current change) ([5]; X. borealis oocytes): 2.7 ± 0.5 µA | Slope, ΔF ([5]; X. borealis oocytes): 1.0 ± 0.1 | Slope, ΔI ([5]; X. borealis oocytes): 2.0 ± 0.2 | ΔFmax (maximal fluorescence change) ([5]; X. laevis oocytes): 12.2 ± 2.2% | ΔImax (maximal current change) ([5]; X. laevis oocytes): 3.4 ± 1.7 µA | Slope, ΔF ([5]; X. laevis oocytes): 1.3 ± 0.2 | Slope, ΔI ([5]; X. laevis oocytes): 1.4 ± 0.2 | EC50 ([5]; read-out: EC50, ΔF (glycine-induced fluorescence change), X. borealis oocytes): 1010 ± 98 µM | EC50 [5, 12]: 872 ± 58 µM | EC50 [5, 13]: 1700 ± 104 µM | EC50 [5, 14]: 1930 ± 175 µM

ProTx-I
Inhibition by ProTx-I, X. laevis vs X. borealis [6]: Comparable levels of inhibition between species | Inhibition by ProTx-I, X. laevis vs X. borealis [7]: Comparable levels of inhibition between species | NaV channel inhibition [8]: potent and non-selective NaV channel inhibitor | Inhibition by ProTx-I, X. laevis vs X. borealis [9]: Comparable levels of inhibition between species

GTACSCGNSKGIYWFYRPSCPTDRGYTGSCRYFLGTCCTPAD (disulfide 4-37, 6-30, 20-38) [APETx2]
IC50 ([10]; X. borealis oocytes): 0.0511 µM | IC50 ([10]; X. laevis oocytes): 0.0647 µM
